{
  "source": "patent US20130059903A1",
  "about": "“Compositions and Methods for Characterizing Breast Cancer” (THE JOHNS HOPKINS UNIVERSITY, priority 2010, published 2013)",
  "assay_type_in_all_cases": "cell-based",
  "key": {"MCF-7 cells [1]": {"system": "MCF-7 cells", "test": "Cell cycle analysis by flow cytometry after anti-estrogen treatment", "conditions": "1 μM 4-hydroxytamoxifen or 1 nM fulvestrant in PRF-MEM/5% CSS, three days", "method": "(§1) Cell lines were obtained from ATCC (Manassas, Va.) and maintained as instructed. Construction of MCF-7/Twist and MCF 10A/Twist cell lines have been described earlier (19, 23). For transient expression, cells were transfected using either retroviral constructs (generated in-house) or lentiviral constructs (Open Biosystems, Huntsville, Ala.). For hormone studies, cells were grown for two days in phenol-red free minimal essential media (PRF-MEM) containing 5% charcoal stripped serum (CSS). For anti-estrogen treatment, PRFMEM/5% CSS media was supplemented with 1 μM 4-hydroxytamoxifen (tamoxifen) or 1 nM fulvestrant. Three days following treatment, the cells were fixed in 70% ethanol and cell cycle analysis performed on a FacScan I (BD Biosciences, San Jose, Calif.). Independent experiments were repeated four times. Data was analyzed using FlowJo (Tree Star Inc., Ashland, Oreg.) and ModFit LT 2.0 software (Verity House Software, Topsham, Me.)."}, "MCF-7/Twist cells [2]": {"system": "MCF-7/Twist cells", "test": "Cell cycle analysis by flow cytometry after anti-estrogen treatment", "conditions": "1 μM 4-hydroxytamoxifen or 1 nM fulvestrant in PRF-MEM/5% CSS, three days", "method": "as §1"}, "MCF-7 cells [3]": {"system": "MCF-7 cells", "test": "Dye efflux assays", "method": "(§2) Semiconfluent cells were washed once with HBSS and resuspended in growth medium at 1×10^6 cells/ml and 5 μg/ml Hoechst 33342 (Sigma-Aldrich, St. Louis, Mo.) and incubated for 45 minutes at 37° C. in a constant-temperature water bath. Subsequently, the cells were washed once in cold HBSS/2% BSA and resuspended in warm medium and incubated for 45 minutes at 37° C. for efflux. Cells were centrifuged and mounted on a slide before photomicroscopy.\n(§3) For Rhodamine 123 (Sigma-Aldrich) staining, cells were trypsinized and washed twice in PBS/1% FCS. One million cells were resuspended in 100 μl of PBS/1% FCS and stained with 100 to 500 ng/ml Rhodamine 123 for 15 to 30 minutes at 37° C. Cells were washed twice at room temperature, resuspended, and incubated without Rhodamine 123 for 15 to 30 minutes at 37° C. to allow for efflux to occur. Rhodamine efflux was subsequently determined by flow cytometry on a FACScan II flow cytometer."}, "MCF-7/Twist cells [4]": {"system": "MCF-7/Twist cells", "test": "Dye efflux assays", "method": "as §2, §3"}, "ER": {"system": "ER", "test": "ER re-expression after methylation inhibitor / HDAC inhibitor treatment (qRT-PCR, immunoblot)", "conditions": "MCF-7/Twist cells; 1 μM AZA, 10 μM VPA, three days; qRT-PCR and immunoblotting", "method": "Cells were treated with 1 μM AZA for three days and DNA processed for demethylation studies by methylation specific quantitative PCR (MS-qPCR). Total proteins were extracted and immunoblotted to analyze the effect of demethylation on ER expression. Cells were treated with HDAC inhibitor VPA at 10 μM concentration for three days and processed similarly."}, "[5]": {"conditions": "5 μg/ml Hoechst 33342, 45 minutes efflux, microscopy"}},
  "data": [
    {"compound": "C[C@]12CC[C@@H]3c4ccc(O)cc4C[C@@H](CCCCCCCCC[S+]([O-])CCCC(F)(F)C(F)(F)F)[C@H]3[C@@H]1CC[C@@H]2O", "note": "(stereo partly drawn) [fulvestrant]", "values": [
      {"measurement": "G1 (percentage of cells in cell cycle phase)", "setting": "MCF-7 cells [1]", "result": 86, "unit": "%"},
      {"measurement": "G2/M (percentage of cells in cell cycle phase)", "setting": "MCF-7 cells [1]", "result": 5.8, "unit": "%"},
      {"measurement": "S (percentage of cells in cell cycle phase)", "setting": "MCF-7 cells [1]", "result": 3.9, "unit": "%"},
      {"measurement": "G1 (percentage of cells in cell cycle phase)", "setting": "MCF-7/Twist cells [2]", "result": 67.7, "unit": "%"},
      {"measurement": "G2/M (percentage of cells in cell cycle phase)", "setting": "MCF-7/Twist cells [2]", "result": 13.3, "unit": "%"},
      {"measurement": "S (percentage of cells in cell cycle phase)", "setting": "MCF-7/Twist cells [2]", "result": 16.6, "unit": "%"}
    ]},
    {"compound": "CCOc1ccc(-c2nc3ccc(-c4nc5ccc(N6CCN(C)CC6)cc5[nH]4)cc3[nH]2)cc1", "note": "[Hoechst 33342]", "values": [
      {"measurement": "relative fluorescence intensity per cell (dye retained after efflux)", "setting": "MCF-7 cells [3]; [5]", "result": 65},
      {"measurement": "relative fluorescence intensity per cell (dye retained after efflux)", "setting": "MCF-7/Twist cells [4]; [5]", "result": 57}
    ]},
    {"compound": "Nc1ncn([C@H]2C[C@H](O)[C@@H](CO)O2)c(=O)n1", "note": "[AZA, 5-aza 2′-deoxycytidine]", "values": [
      {"measurement": "ER expression (transcript and protein levels)", "setting": "ER", "result": "significant increase"}
    ]},
    {"compound": "CCCC(CCC)C(=O)O", "note": "[VPA, valproic acid]", "values": [
      {"measurement": "ER expression (transcript and protein levels)", "setting": "ER", "result": "significant increase"}
    ]},
    {"compound": "Rhodamine 123", "values": [
      {"measurement": "mean fluorescence intensity (dye retained after efflux)", "setting": "MCF-7 cells [3]; Rhodamine 123, flow cytometry", "result": 205},
      {"measurement": "mean fluorescence intensity (dye retained after efflux)", "setting": "MCF-7/Twist cells [4]; Rhodamine 123, flow cytometry", "result": 96}
    ]}
  ]
}
